Reference: patent US20040162298A1, “Method of treating HIV infection by preventing interaction of CD4 and gp120” (priority 2002, published 2004)

Experiments:
gp120JRFL [1] = assay: Circular dichroism analysis of gp120 conformational change; design: species or system HIV-1
Method: (§1) CD spectra was collected on a Jasco J-720 spectropolarimeter at ambient temperature. Protein concentration in the sample were kept a ˜1 μM, with the exception of sCD4 (1.8 μM) in 20 mM Tris/150 mM NaCl, pH 8.0. Concentration of compound used in the experiments were as indicated.
(§2) Circular Dichroism (CD) analysis. (Method for FIG. 3 results). The CD spectra of purified gp120JRFL (1.2 μM in 5 mM Tris, pH 8.0/150 mM NaCl) were obtained, in the presence and absence of an inhibitor, on a Jasco J-720 spectropolarimeter at ambient (21-23° C.) temperature. Samples containing varying protein-to-compound mole ratios were placed in a quartz cuvette with a 1-mm pathlength. The molar ellipticity (θ) was monitored between 200 nm and 250 nm as the average of 12-20 scans. Soluble CD4 was used as a negative protein controls. Compound, BMS-066, with no anti-HIV activity (EC50>5 μM) was included as a compound control.

HIV = assay: Anti-HIV activity (assay not specified); assay type: cell-based; conditions: Human immunodeficiency virus 1, quoted in text
gp120JRFL [2] = assay: Biacore biosensor binding to immobilized gp120; design: species or system HIV-1; conditions: for Biacore signal on gp120-coated surface: compound at 1.5 μM, FIG. 2
Method: GP120JRFL was immobilized on the surface of a CM-chip to a surface density of 12000. Inhibitors prepared in the running buffer was flown over the surface at 30 μl/min. The sensorgram was recorded and normalized against the buffer alone sensorgram, using a Biacore 3000 instrument.
Biacore biosensor evaluation of gp120-inhibitor binding. (See FIG. 2 for results). The selective binding of entry inhibitors with gp120 was evaluated on a Biacore 3000 biosensor. Purified gp120JRFL was immobilized onto the flow cell surface of a CM-5 chip via EDC/NHS activated covalent modification, according to the protocol described by Biacore Inc. (Uppsala, Swiden). The surface density of immobilized gp120 reached 12000-15000 RU. Soluble CD4 and BSA coated surfaces were also immobilized on separate flow cell surfaces as controls.

sCD4 = target: T1, sCD4 (Homo sapiens, UniProt P01730); assay: Circular dichroism analysis, sCD4 negative protein control; conditions: sCD4 1.8 μM, compound 3.5 μM, FIG. 3B
T1 construct: purchased ImmunoDiagnostics, Inc. (Woburn, Mass.)
Method: as §1, §2

gp120JRFL/CD4 = gp120JRFL/CD4 (Human immunodeficiency virus 1, UniProt Q75760); assay: gp120/CD4 binding assay (ELISA); design: species or system HIV-1
Method: The effect of BMS-806 on the gp120/CD4 binding. The gp120JRFL in supernatant was captured onto anti-gp120 antibody (D7324) coated plate. The compound and soluble CD4 were added to the plate simultaneously and CD4 bound to gp120 was detected by ELISA using anti-CD4 antibody OKT4 as a primary antibody and the secondary antibody goat-anti-mouse-peroxidase conjugate. Value are the means±S.E.M which represent multiple separate experiments.
IC50 values show concentration of compound needed to inhibit 50% of binding of gp120 and CD4.
The gp120 capturing ELISA methods was derived from Moore et al (42). Briefly, the 96 well assay plates (Immulon 4, Dynatech Technologies Inc. Chantilly, Va.) were coated overnight at 4° C. with 100 μl per well of 10 ug/ml D7324 solution in 100 mM bicarbonate buffer (pH9.6). The antibody-coated plate was washed twice with TBS (20 mM Tris-HCl, 500 mM NaCl, pH7.5). All wells were blocked with 100 μl of 3% BSA in TBS for ½ hour at room temperature. Excess BSA was removed with three TBS washes. Gp120 (purified or in supernatant) were diluted in buffer C (50 mM Tris-HCl, pH 7.5, 100 mM NaCl, 1% BSA) and added to D7324 coated plate(s) at 100μl/well. After incubating at 37° C. for 2 hours, plate(s) was washes three times with Buffer (20 mM Tris-HCl, 500 mM NaCl, 0.05% Tween-20, pH7.5) and the bound gp120 was detected by Anti-gp120-peroxidase conjugate (Cross-reactive, ImmunoDiagnostics, Inc) at a final dilution of 1:1000 in BufferC. Bound antibody-peroxidase conjugates were detected with TMB solution (Pierce) and the optical density was measured at 450 nm. Known concentration of the purified gp120IIIB (ABI) were used to generate a standard curve for gp120 quantitation.
The assay is similar to the gp120 capturing ELISA method described above with minor modifications.(43). After coating gp120 onto the plates, sCD4 was added to the plate at a final concentration of 200 ng/ml for one hour at room temperature. […] After washing with BufferB, 100 μl of TMB solution was added and the optical density was read at 450 nm.

[3] = system: HIV-1 single-round infectious reporter virus; assay: Anti-HIV single cycle infection assay (luciferase reporter virus, HeLa/CD4/CCR5 cells); assay type: cell-based; conditions: Human immunodeficiency virus 1, HeLa-CD4/CCR5, 72 h, read-out: Anti-HIV single cycle infection EC50
Method: EC50 values show concentration of compound needed to inhibit 50% HIV viral replication.
Single-round infectious reporter virus was produced by co-transfecting human embryonic Kidney 293 cells with an HIV-1 envelope DNA expression vector and a proviral cDNA containing an envelope deletion mutation and the luciferase reporter gene inserted in place of HIV-1 nef sequences (Chen, 1994). Transfections were performed using LipofectAMINE PLUS reagent as described by the manufacturer (Life Technologies, Gaithersburg, Md.). The resulting reporter viruses are then used to infect HeLa/CD4/CCR5 cells in the following manner. Serial diluted compound was added to HeLa/CD4/CCR5 cells plated in 96 well plates at a cell density of 5×10^4 cells per well in 100 μl Dulbecco's Modified Eagle Medium containing 10% fetal Bovine serum. One hundred microliter of single-round infectious reporter virus in Dulbecco's Modified Eagle Medium was then added to the plated cells and compound at a multiplicity of infection (MOI) of 0.01. Samples were harvested 72 hours after infection and viral infection was monitored by measuring luciferase expression from viral DNA in the infected cells using a luciferase reporter gene assay kit as described by the manufacturer.

HIV-1 NL4-3 = assay: Activity against laboratory adapted HIV-1 strain NL4-3; assay type: cell-based; conditions: Human immunodeficiency virus 1, NL43
Method: (§3) Viruses and cells: (Method for Table 2 results). T-tropic (X4) strains of laboratory adapted HIV-1 were amplified in MT-2 cells and titered using a virus yield assay (17). The laboratory adapted M-tropic (R5) viruses were grown in macrophages or PM1 cells and p24 ELISA assay was used to detect the virus. The TCID50/ml (tissue culture infectious dose) was calculated by the method of Spearman-Karber. Titration of viral stocks and assaying for compound sensitivity were carried out in the cell lines the viruses were originally amplified in. The 50% inhibitory concentration (EC50) was calculated by using the exponential form of the median effect equation where (Fa)=1/[1+(ED50/drug conc.)^m] (17).

HIV-1 SF-2 = assay: Activity against laboratory adapted HIV-1 strain SF-2; assay type: cell-based; conditions: Human immunodeficiency virus 1
Method: as §3

HIV-1 SF-162 = assay: Activity against laboratory adapted HIV-1 strain SF-162; assay type: cell-based; conditions: Human immunodeficiency virus 1, CCR5
Method: as §3

[4] = system: laboratory strains of B subtype HIV-1; assay: Activity against panel of laboratory strains of B subtype HIV-1; assay type: cell-based; conditions: Human immunodeficiency virus 1, read-out: EC50 values against 11 of the 13 laboratory strains
Method: as §3

HIV-1 LAV = assay: Activity against laboratory adapted HIV-1 strain LAV; assay type: cell-based; conditions: Human immunodeficiency virus 1
Method: as §3

HIV-1 Bru = assay: Activity against laboratory adapted HIV-1 strain Bru; assay type: cell-based; conditions: Human immunodeficiency virus 1
Method: as §3

HIV-1 RF = assay: Activity against laboratory adapted HIV-1 strain RF; assay type: cell-based
Method: as §3

HIV-1 IIIB = assay: Activity against laboratory adapted HIV-1 strain IIIB; assay type: cell-based; conditions: Human immunodeficiency virus 1, IIIB
Method: as §3

HIV-1 Bal = assay: Activity against laboratory adapted HIV-1 strain Bal; assay type: cell-based; conditions: Human immunodeficiency virus 1, BAL, CCR5, Virus Bal
Method: as §3

HIV-1 A0-18 = assay: Activity against laboratory adapted HIV-1 strain A0-18; assay type: cell-based; conditions: Human immunodeficiency virus 1
Method: as §3

HIV-1 MN = assay: Activity against laboratory adapted HIV-1 strain MN; assay type: cell-based
Method: as §3

HIV-1 JRFL = assay: Activity against laboratory adapted HIV-1 strain JRFL; assay type: cell-based; conditions: Human immunodeficiency virus 1, CCR5
Method: as §3

[5] = system: V1V2V3 loop-deleted gp120JRFL; assay: Binding of [3H]BMS-853 to V1V2V3 loop-deleted gp120; design: species or system HIV-1; conditions: radioactive inhibitor
gp120JRFL [6] = assay: FlashPlate binding of [3H]BMS-853 to gp120, incl. sCD4 competition; design: species or system HIV-1; conditions: radioactive inhibitor
Method: Interaction of gp120JRFL (wild type) with ^3H-BMS-853. FlashPlate was coated with increase amount of gp120 and constant amount of ^3H-BMS-853 (16.5 nM) in BufferC was added to each well and the binding assay was allowed to proceed as described in material and methods. Points are averages of duplicate or triplicate determinations.
Competition binding of ^3H-BMS-853 binding to gp120 by soluble CD4.(sCD4) ^3H-BMS-853 bound to gp120 in the presence of varying amount of sCD4 was determined as described under material and methods. Points shown were obtained in a signal experiment, performed in duplicate. Data were analyzed with Prism computer program. (GraphPad Software, Inc).
FlashPlate assay. The binding of [^3H]BMS-853 to gp120 was performed on FlashPlate (NEN,SMP200). Coating of gp120 onto FlashPlate was essentially the same as described for gp120 capturing ELISA. After brief washes of gp120 coated FlashPlate with TBS, [^3H]BMS-853 was added to a final concentration of 16.5 nM in BufferC and the plate was kept at room temperature overnight. The plate was washed once with TBS and then counted in TopCount® Microplate Scintillation counter. Varying concentrations of gp120 were used to show the gp120 dose-dependent binding of [^3H]BMS-853 (FIG. 1).

Compound: Cc1ccc(C)c2c(C(=O)C(=O)N3CCN(C(=O)c4ccccc4)CC3)c[nH]c12 [BMS-033]
- attenuation of the gp120JRFL CD signal (gp120JRFL [1]; compound at 2 μM, FIG. 3C): did not cause any attenuation
- EC50 (HIV): > 5000 nM

Compound: COc1cnc(-c2cnc(N(C)C)cn2)c2[nH]cc(C(=O)C(=O)N3CCN(C(=O)c4ccccc4)CC3)c12 [BMS-038]
- Biacore response at various concentrations on gp120-coated surface (gp120JRFL [2]; various concentrations): dose-dependent increase of reflective index

Compound: COc1ncc(OC)c2c(C(=O)C(=O)N3CCN(C(=O)c4ccccc4)CC3)c[nH]c12 [BMS-043]
- attenuation of the sCD4 CD signal (sCD4): no attenuation
- Biacore signal on gp120-coated surface (gp120JRFL [2]): intermediate signals
- attenuation of the protein CD signal (gp120JRFL [1]; gp120JRFL 1.2 μM, inhibitor 2.1 μM): 40%
- EC50 (HIV): 0.8 nM

Compound: O=C(C(=O)N1CCN(C(=O)c2ccccc2)CC1)c1c[nH]c2ccccc12 [BMS-216]
- IC50 (gp120JRFL/CD4): 1800 ± 300 nM
- EC50 [3]: 200 nM

Compound: COc1ccnc2[nH]cc(C(=O)C(=O)N3CCN(C(=O)c4ccccc4)C[C@H]3C)c12 [BMS-806, (R)—N-(benzoyl)-3-methyl-N′-[(4-methoxy-7-azaindol-3-yl)-oxoacetyl]-piperazine]
- Biacore signal on gp120-coated surface (gp120JRFL [2]): intermediate signals
- IC50 (gp120JRFL/CD4): 280 nM
- EC50 (HIV-1 NL4-3): 2.94 nM
- EC50 [3]: 0.6 nM
- EC50 (HIV-1 SF-2): 26.5 nM
- EC50 (HIV-1 SF-162): 3.46 nM
- EC50 [4]: 0.85 to 75.8 nM
- EC50 (HIV-1 LAV): 1.98 nM
- EC50 (HIV-1 Bru): 3.26 nM
- EC50 (HIV-1 RF; Human immunodeficiency virus 1): 6030 nM
- blocking of infection (HIV-1 RF; virus RF): not efficiently blocked
- EC50 (HIV-1 IIIB): 39.4 nM
- EC50 (HIV-1 Bal; coreceptor CCR5, host Macrophage): 8.4 nM
- EC50 (HIV-1 Bal; coreceptor CCR5, host PM1): 15.5 nM
- EC50 (HIV): 1 nM
- EC50 (HIV-1 A0-18): 23.6 nM
- EC50 (HIV-1 MN; Human immunodeficiency virus 1, Virus MN, coreceptor CXCR4, host MT-2): 844 nM
- blocking of infection (HIV-1 MN; virus MN): not efficiently blocked
- EC50 (HIV-1 JRFL): 1.47 nM

Compound: COc1ccc(OC)c2c(C(=O)C(=O)N3CCN(C(=O)c4ccccc4)CC3)c[nH]c12 [BMS-853]
- IC50 (gp120JRFL/CD4): 24 ± 9 nM
- EC50 [3]: 0.1 nM

Compound: COc1ccc(OC)c2c(C(=O)C(=O)N3CCN(C(=O)c4ccccc4)CC3)c[nH]c12 [[^3H]BMS-853]
- binding to V1V2V3 loop-deleted gp120JRFL [5]: bound significantly less effective
- binding to full-length recombinant gp120JRFL (gp120JRFL [6]): bind effectively
